The values below come from patent US20240043442A1, “SELECTIVE ESTROGEN RECEPTOR DEGRADERS AND USES THEREOF” (InventisBio LLC, priority 2016, published 2024).

Series [1] has as its target T1, ER (Homo sapiens (Human), UniProt P03372). Particulars: intramuscular injection monthly; cited from earlier work.
The target of series [2] is T1, ER. Kind of series: MCF-7 ER degradation assay (high content imaging). Type of series: cell-based. The settings on record: MCF-7 cells, 1 nM compound, DMSO control as baseline.
Procedure: The level of ER degradation by SERD described in this patent was analyzed by cell based high content imaging method. […] Then, 1 μL of compound solution (in DMSO) was added to the cells to make a final concentration of 1 nM per each well of treated cells. DMSO at the same final concentration (%) per each well was used to serve as negative control on each plate. After 4 hours or 24 hours of treatment at 37° C. with 5% CO2, the cells were fixed and permeabilized. Media from each well was aspirated and cells were gently washed with 1×PBS for 5 minutes and the wash procedure was repeated 3 times. Cells was then fixed with 4% formaldehyde freshly made in 1×PBS at room temperature for 20 minutes, followed by gentle washing with 1×PBS, 3 times for 5 minute each. The assay plate was incubated with 200 μl of 1×PBS containing 0.2% Triton-X100 for 5 minutes at room temperature, cells were then washed again with 1×PBS 3 times for 5 minutes each. After this, cells were incubated with the blocking buffer (1×PBS with 5% BSA) at room temperature for 1 hour. For immunostaining, blocking buffer was removed and primary anti-ER antibody (ER1D5, Santa Cruz) diluted in blocking buffer (1:400) was added to each well and cells were incubated overnight at 4° C. The next day, cells were washed with 1×PBS for 3 times with 5 minute each. […] Cells were washed with 1×PBS for 3 times with 5 minute each time. Cells were incubated with DAPI (Beyotime; 1 μg/ml) for 10 minutes and washed with 1×PBS for 3 times with 5 minute each time. […] SERD induced ER degradation in the MCF-7 cells were measured using DMSO negative control as the baseline.
The nature of series [3]: Human hepatocyte clearance study. Particulars: pooled cryopreserved human hepatocytes (suspension). Type of series: in vitro ADME. As to the method: (§1) The in vitro hepatocyte clearance of compound described here was studied using pooled human hepatocytes purchased from BioreclamationlVT (Westbury, NY, Cat #X008001, Lot #TQJ). Assay was conducted according to manufacture's instruction. Briefly, mM tock solutions of test compound and positive control (Verapamil) were prepared in 100% DMSO. Thawing media (50 mL) used in the study consists of: 31 mL Williams E medium (GIBCO Cat #12551-032); 15 mL isotonic percoll (GE Healthcare Cat #17-0891-09); 500 uL 100×GlutaMax (GIBCO Cat #35050); 750 uL HEPES (GIBCO Cat #15630-080); 2.5 mL FBS (Corning Cat #35-076-CVR); 50 uL human insulin (GIBCO Cat #12585-014) and 5 uL dexamethasone (NICPBP). Incubation media is made of Williams E medium supplemented with 1×GlutaMax. Thawing medium and supplement incubation medium (serum-free) were placed in a 37° C. water bath for at least 15 minutes prior to use. Compound stock solutions were diluted to 100 μM by combining 198 μt of 50% acetonitrile/50% water and 2 μL of 10 mM stock solution. Verapamil was use as positive control in the assay. Vials of cryopreserved hepatocytes were removed from storage and thawed in a 37° C. water bath with gentle shaking. Contents of the vial were poured into the 50 mL thawing medium conical tube. Vials were centrifuged at 100 g for 10 minutes at room temperature. Thawing medium was aspirated and hepatocytes were re-suspended with serum-free incubation medium to yield ˜1.5×10^6 cells/mL. Hepatocyte viability and density were counted using a Trypan Blue exclusion, and then cells were diluted with serum-free incubation medium to a working cell density of 0.5×10^6 viable cells/mL. Then, a portion of the hepatocytes at 0.5×10^6 viable cells/mL was boiled for 5 min prior to adding to the plate as negative control to eliminate the enzymatic activity so that little or no substrate turnover should be observed. The boiled hepatocytes were used to prepare negative samples. Aliquots of 198 μL hepatocytes were dispensed into each well of a 96-well non-coated plate. The plate was placed in the incubator on an orbital shaker at 500 rpm for approximately 10 minutes. Aliquots of 2 μL of the 100 μM test compound or positive control were added into respective wells of the non-coated 96-well plate to start the reaction. This assay was performed in duplicate. The plate was incubated in the incubator on an orbital shaker at 500 rpm for the designed time points. Twenty-five microliter of contents were transferred and mixed with 6 volumes (150 μL) of cold acetonitrile with IS (200 nM imipramine, 200 nM labetalol and 200 nM diclofenac) to terminate the reaction at time points of 0, 15, 30, 60, 90 and 120 minutes. Samples were centrifuged at 3,220 g for 25 minutes and aliquots of 150 μL of the supernatants was used for LC-MS/MS analysis. For data analysis, all calculations were carried out using Microsoft Excel. Peak areas were determined from extracted ion chromatograms. The in vitro half-life (t1/2) of parent compound was determined by regression analysis of the percent parent disappearance vs. time curve. The in vitro half-life (in vitro t1/2) was determined from the slope value: in vitro t1/2=0.693/k. […] Scaling factors for in vivo intrinsic clearance prediction using human hepatocytes are listed as: liver weight (g liver/kg body weight): 25.7; hepatocyte concentration (10^6 cells/g liver): 99; scaling factor: 2544.3.

Another series deals with pooled human hepatocytes. Kind of series: Human hepatocyte clearance study. Type of series: in vitro ADME. The settings on record: human hepatocytes 0.5x10^6 viable cells/mL, 120 min. How it is done: as §1
A further series relates to xMCF-7 xenograft tumor. Kind of series: Human breast cancer xMCF-7 xenograft efficacy study in mouse. It counts as in vivo. How it is done:
To investigate the in vivo efficacy of SERD compounds described in this application, female nude mice were inoculated with human ER+ breast cancer cells xMCF-7. xMCF-7 cells are derived from MCF-7 (ATCC) tumor grown in the nude mice. Briefly, female balb/c mice (age 6-7 wk) were first inoculated subcutaneously on the back with estrogen pellet (0.5 mg, 60-day release from Innovative Research of America, Cat #SE-121). Two days later, each mouse was inoculated with 5 million xMCF-7 cells, prepared as 0.2 ml cell suspension in 1:1 mix of Eagle's MEM to cell culture media and Matrigel (Corning Cat #354234) for each injection. After tumor size reached ˜235 mm^3, mice with xMCF-7 xenograft tumor are randomized to 10 mice per group and started receiving drug treatment.
In another xMCF-7 study, treatment initiated when tumor reached ˜250 mm^3. Each drug was given at 2 mg/kg orally, once daily for 28 days.
For orientation: In xenograft studies the graft and the host belong to different species.

A short description of series [4]: Mouse PK study (iv 3 mpk, po 30 mpk). It counts as in vivo, male CD1 mice. The settings on record: male, CD1, whole blood. How it is done:
Mouse PK study (iv 3 mpk, and po 30 mpk) was conducted using male CD1 mice (25-33 g) obtained from SLAC Laboratory Animal Co., LTD of Shanghai). Compound is prepared with the following formulation: 5% DMSO, 5% Solutol HS 15 and 9% HPBCD in water. For intravenous (iv) dose at 3 mpk and oral (po) dose at 30 mpk, the compound is formulated at the concentration […] and […], respectively. Compound formulation is freshly made prior to dosing in the morning. Oral dosing is via the use of oral gavage at 10 mL/kg, while iv dosing is via tail vein at 5 mL/kg. Three mice are used for each dosing route per compound per dose. Serial blood sample (30 uL whole blood at each time point) is collected into the K2EDTA tubes via facial vein at the following time points: 5 min (for iv route only), 30 min, 1, 2, 4, 6, 8, 12 and 24 hours. For each blood sample collected, immediately transfer 20 uL blood sample and mix well with 60 uL water in a 96-well plate (whole blood:water=1:3 v/v). Diluted blood samples are stored at −80C freezer until analysis. For analysis, an aliquot of 20 μL sample was added with 200 μL IS (Glipizide, 100 ng/mL) in ACN. The mixture was vortexed for 2 min and centrifuged at 5800 rpm for 10 min. An aliquot of 2 μL supernatant was injected for LC-MS/MS analysis. Compound at 2.0-3000 ng/mL in CD1 mouse diluted blood is used for calibration curve. Pharmacokinetic data are obtained and described in the table below: […]

The subject of series [5] is breast cancer cell line MCF-7. Put plainly: MCF-7 cell growth study (celltiter-glo luminescent viability assay).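 Further: viability read by luminescence after compound exposure, relative to DMSO vehicle-treated wells on the same plate.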 Particulars: Homo sapiens, MCF7, 144 h, MCF-7 cells, 6 days incubation; read-out: IC50 (nM), cell growth inhibition. It counts as cell-based, human. (In general: In ATP-based viability assays light output follows the ATP content of the culture.)
Procedure: Compound activity was analyzed using celltiter-glo luminescent viability assay (Promega #G7572) in breast cancer cell line MCF-7. Cells grown in log phase are trypsinized and seeded into a 96-well cell culture plate at a density of 2×10^3 per well and incubated overnight at 37° C. with 5% CO2 in humidified culture chamber. The next day, compounds were prepared in 100% DMSO and were serially diluted and added into cells in the following final concentrations: 316, 100, 31.6, 10, 3.16, 1, 0.32, 0.1, 0.03, 0.01, 0.003 and 0.001 nM. As a control, same volume and concentration of DMSO vehicle control solution was added to the control wells in each plate. The cells were incubated with compounds at 37° C. culture chamber for 6 days. Promega's celltiter-glo kit was used to analyze the cell viability, according to manufacture's instruction. Briefly, fifty microliter of celltiter-glo reagent was added to each well, plate (covered with aluminum foil) was gently vibrated for 10 min to induce cell lysis at room temperature. Luminescence was measured using a SPECTRAmax i3 reader.

T1 sequence (P03372 whole entry): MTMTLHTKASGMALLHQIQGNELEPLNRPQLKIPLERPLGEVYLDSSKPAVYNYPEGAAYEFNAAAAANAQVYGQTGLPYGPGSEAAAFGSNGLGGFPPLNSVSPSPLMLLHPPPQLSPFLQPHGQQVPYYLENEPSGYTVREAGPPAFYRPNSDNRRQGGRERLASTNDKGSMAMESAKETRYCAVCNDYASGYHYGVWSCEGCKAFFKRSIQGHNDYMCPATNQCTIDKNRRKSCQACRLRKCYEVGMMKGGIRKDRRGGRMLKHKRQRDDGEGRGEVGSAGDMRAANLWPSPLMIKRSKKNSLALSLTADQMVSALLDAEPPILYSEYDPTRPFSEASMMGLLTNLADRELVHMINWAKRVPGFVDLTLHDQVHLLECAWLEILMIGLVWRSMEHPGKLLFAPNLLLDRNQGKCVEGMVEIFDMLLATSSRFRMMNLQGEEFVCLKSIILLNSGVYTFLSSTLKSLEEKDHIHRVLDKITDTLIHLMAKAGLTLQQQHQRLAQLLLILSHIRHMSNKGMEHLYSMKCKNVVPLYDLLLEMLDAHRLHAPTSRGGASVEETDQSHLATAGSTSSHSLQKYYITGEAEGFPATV

In the case of `C[C@]12CC[C@@H]3c4ccc(O)cc4C[C@@H](CCCCCCCCC[S+]([O-])CCCC(F)(F)C(F)(F)F)[C@H]3[C@@H]1CC[C@@H]2O` (stereo partly shown) [Fulvestrant, reference compound], the “ER degradation in clinical samples” value at ER [1] was about 50%. For the same compound, the “MCF7 ER Degradation at 4 hr (%)” value on ER [2] (4 hours treatment) was 29%. At ER [2] (24 hours treatment), the “MCF7 ER Degradation at 24 hr (%)” value was 15%. Besides, the hepatocyte CLint at 1 µM in series [3] (human, read-out: Human In vitro Clint (μL/min/10^6 cells)) was 33 µL/min/1e6 cells. In series [3] (human, read-out: Human In vitro T1/2), the half-life at 1 µM stood at 0.7 h. Also, the CLint scaled at 1 µM in series [3] (human hepatocytes, scaling factor 2544.3, read-out: Human Scale-up Clint) turned out to be 86 mL/min/kg. The “Human Hepatocyte Remaining Percentage @ 120 min (%)” value in the series with pooled human hepatocytes is on record as 12%.

In the case of `C[C@@H]1Cc2c([nH]c3ccccc23)[C@@H](c2c(Cl)cc(/C=C/C(=O)O)cc2Cl)N1CC(C)(F)F` [Compound 25], the “tumor growth inhibition and tumor regression (FIG. 2)” value in the series with xMCF-7 xenograft tumor (2 mg/kg orally, once daily for 28 days, start at tumor ~250 mm^3) is “more efficacious than AZD9496”. The “tumor growth inhibition (tumor volume change, FIG. 1)” value in the series on xMCF-7 xenograft tumor (oral 5 mg/kg or 30 mg/kg once a day for 28 days, fulvestrant 250 mg/kg subcutaneously, start at tumor ~235 mm^3) is “more efficacious in vivo than fulvestrant, GDC-0810 and AZD9496”. Further, the clearance in series [4] (3 mg/kg, IV 3 mpk, read-out: Mouse IV 3 mpk CL (converted)) is 1.33 mL/min/kg. In series [4] (30 mg/kg, PO 30 mpk, read-out: Mouse PO 30 mpk AUC last), the AUC(0-t) was 658 µM·h. For the same compound, the half-life in series [4] (30 mg/kg, PO 30 mpk, read-out: Mouse PO 30 mpk T½ (converted)) was 62 h. In addition, the IC50 in series [5] was 0.8 nM.

As usually defined, the IC50 is the concentration at which inhibition is half-maximal.
